Test results: patent US9096615B2, “Bridged bicyclic amino thiazine dioxide compounds as inhibitors of beta-secretase and methods of use thereof” (AMGEN INC., priority 2013, dated 2015)
Like-named read-outs stand apart in the source and are kept apart here.

Key:
BACE1 = BACE1 (Homo sapiens, UniProt P56817); assay: In vitro enzymatic BACE FRET assay; type: biochemical
Experimental: In Vitro Enzymatic BACE FRET (Fluorescence Resonance Energy Transfer) Assay
Enzyme Assay Data in the Example Table I
The assay buffer used in this screen is 0.05 M acetate, pH 4.2, 10% DMSO final, 100 uM genapol (which is a nonionic detergent, below its Critical Micelle Concentration). The Beta Secretase enzyme (0.2 nM) is pre-incubated for one hour with inhibitors, typically in about 1 uL of DMSO according to a serial dilution, are added thereto. This assay is effectively started by the addition of FRET substrate (50 nM) and the combination is incubated for one hour. The FRET assay is terminated with by addition of Tris buffer, which raises the pH to neutrality, and the fluorescence is determined. The FRET substrate is a peptide with commercially available fluorophore and quencher, on opposite sides of the BACE cleavage site. Proteolytic cleavage of the FRET substrate releases quenching of fluorescence (excitation 488 nm and […]).

[1] = tested on: Aβ40 in conditioned medium of cells stably expressing Amyloid Precursor Protein (APP); assay: In vitro BACE cell-based assay (HEK cell assay, Aβ40 sandwich ELISA); conditions: Homo sapiens, HEK293
Experimental: In Vitro BACE Cell-Based Assay
The cell-based assay measures inhibition or reduction of Aβ40 in conditioned medium of test compound treated cells expressing amyloid precursor protein.
Cells stably expressing Amyloid Precursor Protein (APP) were plated at a density of 40K cells/well in 96 well plates (Costar). The cells were cultivated for 24 hours at 37° C. and 5% CO2 in DMEM supplemented with 10% FBS. The test compounds were then added to cells in 10-point dose response concentrations with the starting concentration being either 100 μM or 10 μM. The compounds were diluted from stock solutions in DMSO and the final DMSO concentration of the test compounds on cells was 0.1%. After 24 h of incubation with the test compounds the supernatant conditioned media was collected and the Aβ 40 levels were determined using a sandwich ELISA. The IC50 of the compound was calculated from the percent of control or percent inhibition of Aβ 40 as a function of the concentration of the test compound.
The sandwich ELISA to detect Aβ 40 was performed in 96 well microtiter plates, which were pre-treated with goat anti-rabbit IgG (Pierce). The capture and detecting antibody pair that were used to detect Aβ 40 from cell supernatants were affinity purified pAb40 (Biosource) and biotinylated 6E10 (Signet Labs Inc.), respectively. The optimal concentration for the pAb40 antibody was 3 μg/ml in Superblock/TBS (Pierce) that was supplemented with 0.05% Tween 20 (Sigma). Optimal concentration for the detection antibody 6E10-biotinylated was 0.5 μg/ml in Superblock/TBS (Pierce) that had been supplemented with 2% normal goat serum and 2% normal mouse serum.
Cellular supernatants were incubated with the capture antibody for 3 h at 4° C., followed by 3 wash steps in TBS-tween (0.05%). The detecting antibody incubation was for 2 h at 4° C., again followed by the wash steps as described previously. The final readout of the ELISA is Time-Resolved Fluorescence (counts per minute) using Delfia reagents Streptavidin-Europium and Enhancement solutions (Perkin Elmer) and the Victor 2 multilabel counter (Perkin Elmer).

Cathepsin D (Cat D) = biological target: T1, Cathepsin D (Cat D) (Homo sapiens, UniProt P07339); assay: In vitro enzymatic Cathepsin D (Cat D) FRET assay; type: biochemical; conditions: read-out: CatD IC50
T1 construct: made in house; host or cells: CHO cells
Experimental: In Vitro Enzymatic Cathepsin D (Cat D) FRET (Fluorescence Resonance Energy Transfer) Assay
Recombinant Cat D was expressed in CHO cells. The assay buffer for CathepsinD is 0.05 M citrate pH 3.5, 10% DMSO final, 5 mM CHAPS. The Cat D enzyme (9 nM) is pre-incubated for one hour with inhibitors, typically in about 1 uL of DMSO according to a serial dilution, is added thereto. The assays are effectively started by the addition of different FRET substrates (20 nM for Cat D) and the combination is incubated for one hour. The FRET assay is terminated with by addition of Tris buffer, which raises the pH to neutrality, and the fluorescence is determined. The FRET substrate is a peptide with commercially available fluorophore and quencher, on opposite sides of the BACE cleavage site. The Cat D substrate peptide sequence is based on sequence #1 of Table 1 from Gulnik et al. FEBS Letters v413 p 379-384 1997. Proteolytic cleavage of the FRET substrate releases quenching of fluorescence (Cat D excitation 500 nm and emission 580 nm). […]
Where available, the in-vitro Cat D FRET assay data for each of the Examples, conducted by the first procedure, is provided in Tables 1 and 3. For example, the compound of example 28 has a Cat D IC50 value of >400 uM.

[2] = read-out: BACE1 FRET assay IC50
[3] = Aβ40, 24 h incubation, read-out: HEK cell assay IC50
[4] = average IC50, read-out: BACE1 Enzyme assay IC50
[5] = average IC50, read-out: BACE1 cell assay IC50

T1 sequence (P07339 65-412, species assumed): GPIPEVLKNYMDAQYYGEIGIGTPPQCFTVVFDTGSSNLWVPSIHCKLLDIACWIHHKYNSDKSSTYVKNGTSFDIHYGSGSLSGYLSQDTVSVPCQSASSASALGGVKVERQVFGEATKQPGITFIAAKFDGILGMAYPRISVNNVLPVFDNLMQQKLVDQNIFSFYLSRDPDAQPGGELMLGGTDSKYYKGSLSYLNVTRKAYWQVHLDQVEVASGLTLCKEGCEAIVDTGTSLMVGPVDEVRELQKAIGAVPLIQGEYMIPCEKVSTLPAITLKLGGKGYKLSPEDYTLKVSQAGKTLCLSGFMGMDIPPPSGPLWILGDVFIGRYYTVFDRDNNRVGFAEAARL
Chain of BACE1 (P56817 46-501, species assumed): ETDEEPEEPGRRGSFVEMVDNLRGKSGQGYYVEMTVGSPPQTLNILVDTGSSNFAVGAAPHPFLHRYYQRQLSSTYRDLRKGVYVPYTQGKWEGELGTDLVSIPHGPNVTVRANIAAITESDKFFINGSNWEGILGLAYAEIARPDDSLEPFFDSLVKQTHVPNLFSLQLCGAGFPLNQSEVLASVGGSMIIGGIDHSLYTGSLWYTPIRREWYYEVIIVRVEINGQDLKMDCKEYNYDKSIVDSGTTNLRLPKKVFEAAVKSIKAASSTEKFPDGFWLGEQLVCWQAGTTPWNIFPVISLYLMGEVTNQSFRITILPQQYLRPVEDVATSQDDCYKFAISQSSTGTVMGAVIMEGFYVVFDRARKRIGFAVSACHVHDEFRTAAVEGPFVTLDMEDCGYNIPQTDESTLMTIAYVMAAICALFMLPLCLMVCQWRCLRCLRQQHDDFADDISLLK

IC50 (BACE1; [2]) [nM] | IC50 [1, 3] [nM] | IC50 (Cathepsin D (Cat D)) [µM] | IC50 (BACE1; [4]) [nM] | IC50 [1, 5] [nM] | IC50 (Cathepsin D (Cat D); average IC50, first procedure) [µM] | Compound
1 | 52 | 733 | – | – | – | C[C@]1(c2cc(Nc3ncc(F)c4cc(Cl)cnc34)ccc2F)N=C(N)[C@@]2(C)CC[C@@H]1S2(=O)=O [Example 29, (1R,4R,5S)-2-Amino-4-(5-((3-chloro-5-fluoro-1,7-naphthyridin-8-yl)amino)-2-fluorophenyl)-1,4-dimethyl-8-thia-3-azabicyclo[3.2.1]oct-2-ene 8,8-dioxide]
– | – | – | 255 | 46 | 3260 | COCc1ccc(C(=O)Nc2ccc(F)c([C@@]3(C)N=C(N)[C@]4(C)CC[C@H]3S4(=O)=O)c2)nc1 [Example 91, N-(3-((1R,2R,5S)-4-amino-2,5-dimethyl-8,8-dioxido-8-thia-3-azabicyclo[3.2.1]oct-3-en-2-yl)-4-fluorophenyl)-5-(methoxymethyl)-2-pyridinecarboxamide]
– | – | – | 70 | 18 | > 400 | COc1cnc(C(=O)Nc2ccc(F)c([C@@]3(C)N=C(N)[C@]4(C)CC[C@H]3S4(=O)=O)c2)cn1 [Example 66, N-(3-((1R,2R,5S)-4-amino-2,5-dimethyl-8,8-dioxido-8-thia-3-azabicyclo[3.2.1]oct-3-en-2-yl)-4-fluorophenyl)-5-methoxy-2-pyrazinecarboxamide]
20 | 16 | 85.2 | – | – | – | COc1cnc(C(=O)Nc2ccc(F)c([C@@]3(C)N=C(N)[C@]4(C)CCC[C@@]3(C)S4(=O)=O)c2)cn1 [Example 16, N-(3-((1R,2R,5S)-4-Amino-1,2,5-trimethyl-9,9-dioxido-9-thia-3-azabicyclo[3.3.1]non-3-en-2-yl)-4-fluorophenyl)-5-methoxypyrazine-2-carboxamide]
– | – | – | 2 | 4 | 957 | C[C@]1(c2cc(NC(=O)c3ccc(C#N)cn3)ccc2F)N=C(N)[C@@]2(CF)CC[C@@H]1S2(=O)=O [Example 111, N-(3-((1S,2R,5R)-4-amino-5-(fluoromethyl)-2-methyl-8,8-dioxido-8-thia-3-azabicyclo[3.2.1]oct-3-en-2-yl)-4-fluorophenyl)-5-cyano-2-pyridinecarboxamide]
7 | 17 | 131 | – | – | – | Cc1cc(Cl)cnc1C(=O)Nc1ccc(F)c([C@@]2(C)N=C(N)[C@]3(C)CC[C@@]2(C)S3(=O)=O)c1 [Example 32, N-(3-((1R,2R,5S)-4-amino-1,2,5-trimethyl-8,8-dioxido-8-thia-3-azabicyclo[3.2.1]oct-3-en-2-yl)-4-fluorophenyl)-5-chloro-3-methylpicolinamide]
– | – | – | 84 | 313 | > 44.4 | C[C@]12CC[C@H]([C@@](C)(c3cc(Nc4nccc5nc(C(F)(F)F)cnc45)ccc3F)N=C1N)S2(=O)=O [Example 87, N-(3-((1R,2R,5S)-4-amino-2,5-dimethyl-8,8-dioxido-8-thia-3-azabicyclo[3.2.1]oct-3-en-2-yl)-4-fluorophenyl)-2-(trifluoromethyl)pyrido[3,4-b]pyrazin-5-amine]
13 | 6 | 8.64 | – | – | – | Cc1cc(OC(F)F)cnc1C(=O)Nc1ccc(F)c([C@@]2(C)N=C(N)[C@@]3(C)CCC[C@]2(C)S3(=O)=O)c1 [Example 13, N-(3-((1S,2R,5R)-4-Amino-1,2,5-trimethyl-9,9-dioxido-9-thia-3-azabicyclo[3.3.1]non-3-en-2-yl)-4-fluorophenyl)-5-(difluoromethoxy)-3-methylpicolinamide]
– | – | – | 103 | 65 | > 400 | C[C@]1(c2cc(NC(=O)c3c(F)cc(Br)cc3F)ccc2F)N=C(N)[C@@]2(C)CC[C@@H]1S2(=O)=O [Example 125, N-(3-((1S,2R,5R)-4-amino-2,5-dimethyl-8,8-dioxido-8-thia-3-azabicyclo[3.2.1]oct-3-en-2-yl)-4-fluorophenyl)-4-bromo-2,6-difluorobenzamide]
